Read-outs that look alike come from different tables or passages of the source.
How the values were obtained:
[1] = system: JAK-STAT signalling in HeLa cells; assay: JAK-STAT signalling assay (OSM-triggered pSTAT1(2)-luciferase reporter in HeLa cells); format: cell-based; settings: Homo sapiens, read-out: STAT signalling EC50
Summary of the method: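 Read-out is oncostatin M–driven pSTAT1(2)-luciferase activity, corrected by co-transfected LacZ β-galactosidase, in transiently transfected HeLa cells cultured overnight at 37 °C, 10% CO2. Inhibition percentages against positive and negative controls were plotted across doses to derive EC50.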

MMP13 in SW1353 cells = assay: OSM/IL-1β signaling assay (MMP13 levels in SW1353 cells); format: cell-based; settings: Homo sapiens, read-out: MMP13 EC50;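 further: secreted MMP13 captured by antibody, activated with APMA and its activity read by fluorescence, inhibition scaled between vehicle-treated triggered wells (0%) and untriggered wells (100%)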
Protocol: The cells were seeded in 96 well plates at 15,000 cells/well in a volume of 120 μL DMEM (Invitrogen) containing 10% (v/v) FBS and 1% penicillin/streptomycin (InVitrogen) incubated at 37° C. […] MMP13 activity was measured using an antibody capture activity assay. […] Next the wells were washed twice with PBS+0.05% Tween followed by MMP13 activation by addition of 35 μL of a 1.5 mM 4-Aminophenylmercuric acetate (APMA) (Sigma, A9563) solution and incubation at 37° C. for 1 hour. […] Percentage inhibition=((fluorescence determined in the presence of vehicle−fluorescence determined for sample with test compound present) divided by (fluorescence determined in the presence of vehicle−fluorescence determined for sample without trigger))*100%.

[2] = system: Collagen Induced Arthritis (CIA); assay: Rat CIA model; format: in vivo; settings: therapeutic dosing day 16 to day 30, p.o., statistical significance in several of the readouts
Protocol: Completed Freund's adjuvant (CFA) and incomplete Freund's adjuvant (IFA) were purchased from Difco. Bovine collagen type II (CII), lipopolysaccharide (LPS), and Enbrel were obtained from Chondrex (Isle d'Abeau, France); Sigma (P4252, L'Isle d'Abeau, France), Whyett (25 mg injectable syringe, France) Acros Organics (Palo Alto, Calif.), respectively. All other reagents used were of reagent grade and all solvents were of analytical grade.
Dark Agouti rats (male, 7-8 weeks old) were obtained from Harlan Laboratories (Maison-Alfort, France). Rats were kept on a 12 hours light/dark cycle (0700-1900). The temperature was maintained at 22° C., and food and water were provided ad libitum.
One day before the experiment, CII solution (2 mg/mL) was prepared with 0.05 M acetic acid and stored at 4° C. Just before the immunization, equal volumes of adjuvant (IFA) and CII were mixed by a homogenizer in a pre-cooled glass bottle in an ice water bath. Extra adjuvant and prolonged homogenization might be required if an emulsion is not formed. 0.2 mL of the emulsion was injected intradermally at the base of the tail of each rat on day 1, a second booster intradermal injection (CII solution at 2 mg/mL in CFA 0.1 mL saline) was performed on day 9. This immunization method was modified from published methods (Sims N A et al., (2004) Targeting osteoclasts with zoledronic acid prevents bone destruction in collagen-induced arthritis, Arthritis Rheum. 50 2338-2346; Jou et al., 2005).
The therapeutic effects of the test compounds were tested in the rat CIA model. Rats were randomly divided into equal groups and each group contained 10 rats. All rats were immunized on day 1 and boosted on day 9. Therapeutic dosing lasted from day 16 to day 30. The negative control group was treated with vehicle (MC 0.5%) and the positive control group with Enbrel (10 mg/kg, 3× week, s.c.). A compound of interest was typically tested at 3 doses, e.g. 3, 10, 30 mg/kg, p.o.
Arthritis was scored according the method of Khachigian 2006, Lin et al 2007 and Nishida et al. 2004. The swelling of each of the four paws was ranked with the arthritic score as follows: 0-no symptoms; 1-mild, but definite redness and swelling of one type of joint such as the ankle or wrist, or apparent redness and swelling limited to individual digits, regardless of the number of affected digits; 2-moderate redness and swelling of two or more types of joints; 3-severe redness and swelling of the entire paw including digits; 4-maximally inflamed limb with involvement of multiple joints (maximum cumulative clinical arthritis score 16 per animal) (Nishida et al., 2004).
Clinically, body weight loss is associated with arthritis (Shelton et al., 2005; Argiles et al., 1998; Rall, 2004; Walsmith et al., 2004). […] The change in body weight (%) after onset of arthritis was calculated as follows: […]
X-ray photos were taken of the hind paws of each individual animal. A random blind identity number was assigned to each of the photos, and the severity of bone erosion was ranked by two independent scorers with the radiological Larsen's score system as follows: 0-normal with intact bony outlines and normal joint space; 1—slight abnormality with any one or two of the exterior metatarsal bones showing slight bone erosion; 2—definite early abnormality with any three to five of the exterior metatarsal bones showing bone erosion; 3—medium destructive abnormality with all the exterior metatarsal bones as well as any one or two of the interior metatarsal bones showing definite bone erosions; 4—severe destructive abnormality with all the metatarsal bones showing definite bone erosion and at least one of the inner metatarsal joints completely eroded leaving some bony joint outlines partly preserved; 5—mutilating abnormality without bony outlines. This scoring system is a modification from Salvcmini et al., 2001; Bush et al., 2002; Sims et al., 2004; Jou et al., 2005. […]

TNF-alpha release = assay: Septic shock model (LPS-induced TNF release); format: in vivo, mouse; settings: 30 mg/kg po, BALB/cJ mice, LPS ip; statistically significant
Protocol: Injection of lipopolysaccharide (LPS) induces a rapid release of soluble tumour necrosis factor (TNF-alpha) into the periphery. This model is used to analyse prospective blockers of TNF release in vivo.
Six BALB/cJ female mice (20 g) per group were treated at the intended dosing once, po. Thirty minutes later, LPS (15 μg/kg; E. Coli serotype 0111:B4) was injected ip. Ninety minutes later, mice were euthanized and blood was collected. Circulating TNF alpha levels were determined using commercially available ELISA kits. Dexamethasone (5 μg/kg) was used as a reference anti-inflammatory compound. Selected compounds are tested at one or multiple doses, e.g. 3 and/or 10 and/or 30 mg/kg, po.

[3] = Microsomal stability, human liver microsomes; format: in vitro ADME; settings: percentage of compound remaining after 60 minutes, 3 μM compound
Summary of the method: (§1)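 Percent parent remaining after 60 min was determined by LCMS against a time-zero sample quenched before microsome addition. Incubations ran at 37°C with liver microsomes and a G6PDH-based NADPH-regenerating cofactor mix. Quench was MeOH or ACN (1:1).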

[4] = Microsomal stability, rat liver microsomes; format: in vitro ADME; settings: percentage of compound remaining after 60 minutes, 3 μM compound
Summary of the method: as §1

[5] = Caco2 permeability (bi-directional); format: in vitro ADME, human; settings: human, pH 7.4; Caco-2, apical to basolateral; read-out: Papp (A2B)
Summary of the method: (§2)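 Compound concentrations in both chambers were measured by LC-MS/MS after 1 h incubation at 37 °C on an orbital shaker. Efflux ratio is PappB>A over PappA>B. Lucifer Yellow (50 μM in donor) confirmed layer integrity, with permeability of ≤100 nm/s required.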

Caco-2 cells = assay: Caco2 permeability (bi-directional); format: in vitro ADME, human; settings: Caco-2, apical to basolateral
Summary of the method: as §2

| Structure (SMILES) | EC50 ([1]; HeLa) | EC50 (MMP13 in SW1353 cells; SW1353, 48 h) | efficacy in all readouts of the rat CIA study [2] | reduction in the TNF release (TNF-alpha release) | Microsomal Stability Human (%) [3] | Microsomal Stability Rat (%) [4] | Papp A→B at 1 h, 10 µM [5] | EC50 ([1]; HeLa cells, OSM-triggered pSTAT1(2)-luciferase reporter) | EC50 (MMP13 in SW1353 cells; SW1353 cells, OSM and IL-1β triggered, MMP13 levels 48 hours after triggering) | Papp (A2B) (Caco-2 cells) |
| --- | --- | --- | --- | --- | --- | --- | --- | --- | --- | --- |
| O=C(Nc1nc2cccc(-c3ccc(CN4CCS(=O)(=O)CC4)cc3)n2n1)C1CC1 [Compound 200, Cyclopropanecarboxylic acid {5-[4-(1,1-dioxo-thiomorpholin-4-ylmethyl)-phenyl]-[1,2,4]triazolo[1,5-a]pyridin-2-yl}-amide] | 501 to 1000 nM | > 1000 nM | efficacious in all readouts | > 50% | **** (**** 76-100) | *** (*** 51-75) | 4.65 ×10⁻⁶ cm/s | – | – | – |
| N#CC1CN(C(=O)c2ccc(-c3cccc4nc(NC(=O)C5CC5)nn34)cc2)C1 [Compound 328, Cyclopropanecarboxylic acid {5-[4-(3-cyano-azetidine-1-carbonyl)-phenyl]-[1,2,4]triazolo[1,5-a]pyridin-2-yl)-amide] | – | – | – | – | – | – | – | 501 to 1000 nM | > 1000 nM | 0.2! cmx10-6sec-1 |

Source: patent US10206907B2, “Compounds useful for the treatment of degenerative and inflammatory diseases” (GALAPAGOS NV, priority 2008, dated 2019)
